Measurements: patent US20180136241A1, “METHOD FOR EXAMINING FOOD ALLERGY AND EXAMINATION KIT” (The University of Tokyo, priority 2014, published 2018)

Legend:
[1] = cited from earlier work
[2] = system: food allergy symptoms induced by OVA; test: Frequency of diarrhea in OVA-induced food allergy model mouse; assay type: in vivo; details: BALB/c mice sensitized with OVA, drug i.p. every day during OVA oral administration period; cromolyn 300 μg/mouse, DEX 2 mg/kg; n=5
Experimental: (§1) Model preparation: Wild type BALB/c mice (6-8 weeks old, female) were intraperitoneally sensitized with OVA by administering OVA (50 μg) twice at intervals of two weeks. Two weeks later, OVA (10 mg) was orally administered 10 times in total at intervals of two days. As a control, the mice sensitized with OVA was orally administered with physiological saline 10 times in total at intervals of two days.
Medication treatment: During the period of orally administering OVA to the mice sensitized with OVA in accordance with the aforementioned method, dexamethasone (2 mg/kg) or sodium cromoglycate (300 μg/mouse) were intraperitoneally administered every day.
Symptom evaluation: The number of mice which developed diarrhea within one hour after the OVA administration is determined in percentage.

[3] = system: tetranor-PGDM amount excreted in the urine; test: Urinary tetranor-PGDM by HPLC-MS/MS in OVA-induced food allergy model mouse; assay type: in vivo; details: BALB/c mice sensitized with OVA, drug i.p. every day during OVA oral administration period; cromolyn 300 μg/mouse, DEX 2 mg/kg; n=5
Experimental: as §1
Medication treatment: During the period of orally administering OVA to the mice sensitized with OVA in accordance with the aforementioned method, dexamethasone (2 mg/kg) or sodium cromoglycate (300 μg/mouse) were intraperitoneally administered every day. […]
Using the urine sample pretreated, tetranor-PGDM and tetranor-PGEM were measured by a high performance liquid chromatography tandem mass spectrometer (HPLC-MS/MS). […] As a quantitative method, MRM (Multiple Reaction Monitoring) method was employed. Tetranor-PGDM (mass number 328) and tetranor-PGEM (mass number 328) were detected by using product ion m/z 309, which was produced by further decomposing the produced precursor ion m/z (mass number÷charge) 327 by collision induced dissociation (CID). Internal standards, tetranor-PGDM-d6 (mass number 334) and tetranor-PGEM-d6 (mass number 334), were detected by using product ion m/z 315, which was produced by further decomposing precursor ion m/z (mass number÷charge) 333 by CID. […]

[4] = cited from earlier work; remark: listed apart in the source

CCCCC[C@H](O)/C=C/[C@H]1C(=O)C[C@H](O)[C@@H]1C/C=C\CCCC(=O)O [PGD2, prostaglandin D2]
time in which PGD2 is metabolized in vivo [1]: 50 s

O=C(O)c1cc(=O)c2c(OCC(O)COc3cccc4oc(C(=O)O)cc(=O)c34)cccc2o1 [cromolyn, sodium cromoglycate]
food allergy symptoms induced by OVA (frequency of diarrhea) [2]: suppressed food allergy symptoms | tetranor-PGDM amount excreted in the urine [3]: significantly decreased

NCCc1c[nH]cn1 [histamine]
time in which histamine in the blood disappears [4]: 15 min
